Measured values published in US6900308B2, “α-modified nucleoside triphosphates” (ISIS Pharmaceuticals, Inc., priority 2001, dated 2005).

Tests used:
[1] = target: wild-type HIV RT (Human immunodeficiency virus type 1 group M subtype B, UniProt P04585); assay: Inhibition of HIV-RT activity (RNA template t500 annealed to DNA primer pD500, [alpha-33P]-dATP incorporation); format: biochemical; conditions: for inhibition at 10 µM: read-out: % I (10 μM), Inhibition of HIV-RT; for inhibition at 100 µM: read-out: % I (100 μM), Inhibition of HIV-RT
[2] = target: T1, HCV NS5B RNA polymerase (Hepatitis C virus genotype 1b, UniProt P26663); assay: Inhibition of HCV NS5B RNA-dependent RNA polymerase on heteromeric RNA template t500 (filter-binding, radiolabelled NTP); format: biochemical; conditions: test concentration not given (compounds tested up to 100 μM); for % I (ATP), Percent Inhibition of HCV NS5B RNA polymerase: [alpha-32P]-ATP label; for % I (GTP), Percent Inhibition of HCV NS5B RNA polymerase: [alpha-32P]-GTP label
T1 construct: purified hepatitis C NS5B (form with 21 amino acids C-terminally truncated)
T1 sequence (P26663 2420-2989): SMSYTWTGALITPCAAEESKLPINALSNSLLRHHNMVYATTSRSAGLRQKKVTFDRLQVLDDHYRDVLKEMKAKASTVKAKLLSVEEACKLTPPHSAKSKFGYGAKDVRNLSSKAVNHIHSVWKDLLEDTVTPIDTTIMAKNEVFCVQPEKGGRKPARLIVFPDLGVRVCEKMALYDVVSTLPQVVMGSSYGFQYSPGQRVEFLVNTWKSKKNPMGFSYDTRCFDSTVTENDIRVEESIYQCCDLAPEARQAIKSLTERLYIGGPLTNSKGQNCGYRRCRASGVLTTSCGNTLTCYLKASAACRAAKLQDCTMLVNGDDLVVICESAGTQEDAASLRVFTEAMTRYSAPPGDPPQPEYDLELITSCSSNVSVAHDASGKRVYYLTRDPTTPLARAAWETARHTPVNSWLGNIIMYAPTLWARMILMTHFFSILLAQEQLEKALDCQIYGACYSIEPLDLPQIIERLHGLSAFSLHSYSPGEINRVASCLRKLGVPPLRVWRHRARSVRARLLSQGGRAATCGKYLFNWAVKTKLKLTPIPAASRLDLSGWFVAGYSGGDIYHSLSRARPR
Method: This assay can be used to measure the ability of the nucleoside triphosphates of the present invention to inhibit the enzymatic activity of the RNA-dependent RNA polymerase (NS5B) of the hepatitis C virus (HCV) on a heteromeric RNA template.
The following describes assay buffer conditions: (50 μl-total/reaction) • 20 mM Tris, pH 7.5 • 50 μM EDTA • 5 mM DTT • 2 mM MgCl2 • 80 mM KCl • 0.4 U/μl RNAsin (Promega, stock is 40 units/μl) • 0.75 μg t500 (a 500 nt RNA made using T7 runoff transcription with a sequence from the NS2/3 region of the hepatitis C genome) • 1.6 μg purified hepatitis C NS5B (form with 21 amino acids C-terminally truncated) • 1 μM A, C, U, GTP (nucleoside triphosphate mix) • [alpha-^32P]-GTP or [alpha-^32P]-ATP The compounds were tested at various concentrations up to 100 μM final concentration.
An appropriate volume of reaction buffer was made including enzyme and template t500. Nucleoside derivatives of the present invention were pipetted into the wells of a 96-well plate. A mixture of nucleoside triphosphates (NTP's), including the radiolabeled GTP, was made and pipetted into the wells of a 96-well plate. The reaction was initiated by addition of the enzyme-template reaction solution and allowed to proceed at room temperature for 1-2 hours.
The reaction was quenched by addition of 20 μl 0.5 M EDTA, pH 8.0. Blank reactions in which the quench solution is added to the NTPs prior to the addition of the reaction buffer were included.
50 μL of the quenched reaction was spotted onto DE81 filter disks (Whatman) and allowed to dry for 30 minutes. The filters were washed with 0.3 M ammonium formate, pH 8 (150 mL/wash until the cpm in 1 mL wash is less than 100, usually 6 washes). The filters were counted in 5-mL scintillation fluid in a scintillation counter.
The percentage of inhibition is calculated according to the following equation: %Inhibition={1−(cpm in test reaction−cpm in blank)/(cpm in control reaction−cpm in blank)}×100.

Molecule	inhibition at 10 µM [1]	inhibition at 100 µM [1]	% I (ATP), Percent Inhibition of HCV NS5B RNA polymerase [2]	% I (GTP), Percent Inhibition of HCV NS5B RNA polymerase [2]
COc1cc(CN)cc(OC)c1 [compound 10]	-6.41%	-11.9%	–	–
NCc1ccc(-c2ccccc2)cc1 [compound 14]	-2.25%	-12.9%	–	–
2′-O-Methyl guanosine-5′-(α-P-(N-butyl)triphosphate) [compound 23 of Table 2]	–	–	90%	91%
NCC1COCCOCCOCCOCCO1 (stereo not shown) [compound 11]	5.37%	-17.2%	–	–
2′-Deoxythymidine-5′-(α-P-(amino triphosphate) [compound 17 of Table 2]	–	–	0.1%	−6%
